Experimental data: patent US20260159474A1, “Aminoindane Compounds and Compositions and Methods of Their Therapeutic Use” (Solvonis Therapeutics Ireland Holdings Limited, priority 2021, published 2026)
Like-named read-outs stand apart in the source and are kept apart here.

Experiments:
[1] = biological target: T1, human 5-HT2A receptor (Homo sapiens, UniProt P28223); assay: Intracellular calcium response (FLIPR) in CHO cells expressing human 5-HT2A receptor; format: cell-based; conditions: n=2; for 5-HT2A agonist mode pEC50: intracellular calcium; for 5-HT2A antagonist mode pIC50: inhibition of serotonin EC80 response
T1 construct: expressed in transfected cells; host or cells: CHO
T1 sequence (P28223 whole entry): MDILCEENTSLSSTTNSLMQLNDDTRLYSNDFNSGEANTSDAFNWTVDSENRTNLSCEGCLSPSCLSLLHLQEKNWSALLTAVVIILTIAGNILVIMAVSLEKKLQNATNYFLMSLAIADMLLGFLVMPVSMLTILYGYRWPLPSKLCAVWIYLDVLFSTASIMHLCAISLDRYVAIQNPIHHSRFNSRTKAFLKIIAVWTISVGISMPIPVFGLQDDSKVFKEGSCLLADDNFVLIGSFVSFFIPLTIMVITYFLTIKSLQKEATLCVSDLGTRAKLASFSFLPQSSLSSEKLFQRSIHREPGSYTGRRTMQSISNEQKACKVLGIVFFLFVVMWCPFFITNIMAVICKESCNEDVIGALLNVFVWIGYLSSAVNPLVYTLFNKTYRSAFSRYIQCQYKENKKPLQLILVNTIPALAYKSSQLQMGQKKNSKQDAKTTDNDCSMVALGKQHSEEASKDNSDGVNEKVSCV
Procedure: Methods: Selectivity for the 5-HT2A receptor was assessed by measuring [ICa2+]i in a CHO recombinant cell line stably expressing the human 5-HT2A receptor, using a Fluorometric Imaging Plate Reader (FLIPR TETRA, Molecular Devices).
The day before the experiment, CHO cells were seeded into black-wells clear-bottom 384-well plates at a density of 10,000 cells per well, in F-12K Medium (ThermoFisher #21127) supplemented with 10% dialyzed fetal bovine serum, and grown overnight at 37° C., 5% C02.
On the day of the experiment, the medium was replaced with assay buffer (20 miM HEPES, 145 mM NaCl, 5 mM KCl, 5.5 mM glucose, 1 mM MgCl2, 2 mM CaCl2 and 2.5 mM probenecid, pH 7.4) containing the cytoplasmic Ca2+ indicator Fluo-4 AM at 2 μM and 0.02% Pluronic F-127. After an incubation of 45-60 minutes at 37° C., 0% C02, cells were washed by Microplate Washer (BIOTEK) 384 with assay buffer, and the plate was transferred to the FLIPR TETRA. Then, intracellular fluorescence was measured in real time by FLIPR TETRA (excitation wavelength at 470-495 nm, emission wavelength at 515-575 nm), using a dual addition protocol.
In the first addition, test compounds (11 points of 1:4 serial dilution, 0.5% DMSO final) were added to the cell plate to evaluate their effect on intracellular calcium levels. In the event of a response, the signal was elaborated for the determination of pEC50/EC50 values.

[2] = Plasma protein binding by equilibrium dialysis, rat plasma; format: in vitro ADME; conditions: for Rat Plasma (Fu %): fraction unbound, 0.5 μM; for fraction unbound at 5 h, 0.5 μM: male, Sprague Dawley, rat, plasma, pH 7.4, read-out: Rat Plasma (Fu %)
Procedure: Methods: Plasma protein binding and blood tissue binding of test items (0.5 μM) was determined using biological samples from male Sprague Dawley (SD) rats and humans. […] Dexamethasone was used as a control compound for lung tissue binding. Various biological samples were spiked with test compounds according to the methods that follow.
Preparation of plasma or blood samples: An appropriate amount of test compound was dissolved in DMSO to yield a 10 mM solution. Further dilutions, to obtain 50 μM working solutions (WS), were then prepared using 50% acetonitrile in Milli-Q water. These 100×WS were used to spike plasma or blood to obtain a final concentration of 0.5 μM. From this initial spiking solution, control samples (n=3), referred to as T=0, were immediately extracted and used to calculate the recovery of the test item.
An equilibrium dialysis method was performed to determine protein binding in the various biological samples described herein. Materials were prepared and methods were in accordance with the following procedures.
Membranes were prepared for use in the equilibrium dialysis experiment. by soaking in deionized water for at least 60 minutes. After this period, 20% of pure ethanol was added, and the membranes were left in this solution for at least 20 minutes. The membranes were then rinsed in Milli-Q water prior to use.
To initiate the experiment, 150 μL of test item-free buffer (isotonic phosphate buffer for plasma and blood, artificial CSF buffer for brain or HBSS buffer for lung) was dispensed on one half-well of a 96-well dialyzer apparatus (HTDialysis LLC), and 150 μL of spiked matrix (plasma, blood, brain or lung) was loaded on the other half-well. Alternative volumes may be used according to the operating instructions of HTDialysis.
Dialysis buffer was prepared by dissolving Na2HPO4 8.69 g, KH2PO4 1.90 g, and NaCl 4.11 g in […] of MilliQ water, and adjusting the pH to 7.4 with H3PO4. At the end of the equilibration period (device is sealed and incubated under shaking for 5 hours at 37° C.), 50 μL of dialysed matrix will be added to 50 μL of corresponding test item free dialysed buffer, and vice versa for buffer, such that the volume of buffer to matrix will be the same. Samples were extracted by protein precipitation with 300 μL of acetonitrile containing rolipram (for positive ionization mode) or diclofenac (for negative ionization mode) as internal standard and centrifuged for 10 minutes at 2800 rpm. […]
Samples were then injected onto an HPLC MS/MS or UPLC MS/MS system. In order to control the integrity of the membrane after the dialysis process, the presence of protein was assessed in the buffer compartment. […]
Samples were analyzed in a LC-MS/MS system using an analytical method to monitor the compound to internal standard peak area ratios as representative of the compound concentrations. Alternatively, samples were analyzed by RapidFire.
Protein binding in plasma, blood, brain, and lung tissue samples were determined with the following formula: Afu=Buffer/x, wherein “x” may be plasma, blood, brain, or lung, and “Afu” is the apparent fraction unbound, and the other variables refer to the analyte/internal standard ratio determined in their specific compartment (buffer, plasma, blood, brain homogenate, and lung homogenate); Fucr-(1/D)/[(1/Afu)-1+(1/D)], wherein fucr is the fraction unbound corrected, D is the matrix dilution factor (D=1 for plasma, 2 for blood, 3 for brain, 7 for lung). % Binding=(1−fucr)×100 and % Unbound=100—% Bound. […]

[3] = In vivo pharmacokinetics and brain penetration in rats after IV administration; conditions: rat; for Kp at 2 h: 2 hours post-administration, read-out: brain to plasma ratio; for Vd: read-out: Vss
Procedure: Group 1: Therapeutic compounds were administered via the IV route to three rats at a target dose level of 0.5 mg/kg. Blood and brain samples were collected at 2 h after IV administration. Group 2: Therapeutic compounds were administered via the IV route to three rats (brain penetration group) at a target dose level of 0.5 mg/kg. Blood and brain samples were collected at 2 h after IV administration. Group 3: Therapeutic compounds were orally administered to three rats at a target dose level of 1 mg/kg.
All test formulations were prepared on the day of administration prior to dosing, stored at room temperature, and used as soon as possible. Formulations were prepared and administered by volume IV dosing. Actual body weights were determined on the day of dose administration, and the dose volumes were adjusted to the weight of the animal at the time of dose administration.
Blood was collected into K3 EDTA tubes at each of the following time points post-administration:
Group 1 (IV): 0.083, 0.33, 1, 2, 4, 6, 8, and 24 hours after dosing Group 2 (IV): 2 hours after dosing for terminal brain analysis
All blood samples were thoroughly and gently mixed following collection and placed on wet ice. Within 0.5 h of collection, blood was centrifuged (3000 g for 10 minutes at approximately 4° C.). Within 0.5 hours, 20 μL of each plasma sample was transferred into micronic tubes containing 80 μL of 0.1N Hepes buffer (pH 7.0-7.5). Residual plasma was transferred in micronic tubes as a second aliquot.
Brain specimens were diluted with 4 volumes of 0.1 N Hepes buffer and homogenized using the Precellys system. Blood and brain samples were assayed using an optimized method based on protein precipitation with acetonitrile followed by HPLC/MS-MS analysis. Given the unknown stability of the analytes in blood and brain, calibration standards (CS) and quality control samples (QC) were prepared in blood and brain samples on the day of dosing and stored together with study samples. It is assumed that this procedure accounted for any possible analyte degradation.
Study samples, CS, QC, and blanks were spiked with an internal standard (IS), to improve the precision of the assay. Study samples were analyzed together with CS, QC and blank samples (including double blanks). From the calibration curve, the linear range of the analytical method was determined and the lower/upper limits of quantitation were specified.
The results of blood and brain specimens were subjected to non-compartmental pharmacokinetic analysis using Phoenix WinNonlin 6.3, with the following parameters reported: Calculated concentration of test items in the corresponding formulation (expressed as mg/mL), dose levels (expressed as mg/kg) for each compound, actual collection times (expressed as hh: mM), blood concentrations (expressed as ng/ml) for each compound, brain concentrations (expressed as ng/g) for each compound, PK parameters (iv: Cmax, AUC, CLp, Vss, t1/2, if applicable; oral (PO): Cmax, tmax, AUC, F %, Fa %, Eh, AUC BB ratio, if applicable) for each compound, and abnormal clinical signs and relevant findings, if any.

[4] = brain and plasma, 0.5 mg/kg, IV
[5] = plasma, IV, 0.5 mg/kg, read-out: Clearance
[6] = plasma, IV, 0.5 mg/kg, read-out: Cmax

| SMILES | 5-HT2A agonist mode pEC50 [1] | 5-HT2A antagonist mode pIC50 [1] | Rat Plasma (Fu %) [2] | Kp at 2 h [3, 4] | AUC(0-inf) ([3]; plasma, IV, 0.5 mg/kg) | AUC(0-t) ([3]; plasma, IV, 0.5 mg/kg) | half-life ([3]; plasma, IV, 0.5 mg/kg) | clearance [3, 5] | Cmax [3, 6] | Vd ([3]; plasma, IV, 0.5 mg/kg) | Clast ([3]; IV, 0.5 mg/kg) | Tlast ([3]; IV, 0.5 mg/kg) | fraction unbound at 5 h, 0.5 μM [2] | further results |
| --- | --- | --- | --- | --- | --- | --- | --- | --- | --- | --- | --- | --- | --- | --- |
| COC(=O)c1ccc2c(c1)CC(N)C2 (centres unmarked) [CMP-405, 2-aminoindane-5-methylcarboxylate] | comparable to MDMA | comparable to MDMA | high binding in plasma specimens and Low | 2.12 | 334 ng·h/mL | 330 ng·h/mL | 19.8 min | 25.5 mL/min/kg | 808 ng/mL | 0.602 L/kg | 8.08 ng/mL | 2 h | – | – |
| COC(=O)c1cc2c(cc1OC)CC(N)C2 (centres unmarked) [CMP-401] | – | – | Low | – | – | – | – | – | – | – | – | – | – | – |
| COc1ccc2c(c1)CC(N)C2 (centres unmarked) [MEAI, 5-methoxy-2-aminoindane] | comparable to MDMA | comparable to MDMA | – | 2.21 | 788 ng·h/mL | 773 ng·h/mL | 29.6 min | 10.6 mL/min/kg | 1400 ng/mL | 0.376 L/kg | 24.7 ng/mL | 3 h | > 0.5 | Kp uu at 2 h ([3]; brain and plasma, intravenous, 0.5 mg/kg, assuming free plasma concentration equals total plasma concentration): 0.71 |
| COc1cc2c(cc1C)CC(N)C2 (centres unmarked) [MMAI, 5-methoxy-6-methyl-2-aminoindane] | – | – | – | – | – | – | – | – | – | – | – | – | > 0.5 | – |
| CNC(C)Cc1ccc2c(c1)OCO2 (centres unmarked) [MDMA] | less than 4.3 | less than 4.3 | >50% | – | – | – | – | – | – | – | – | – | – | AUCinf ([3]; IV, 1 mg/kg): 384 ng·h/mL; AUClast ([3]; IV, 1 mg/kg): 367 ng·h/mL; Clast ([3]; IV, 1 mg/kg): 12.1 ng/mL; Cmax ([3]; IV, 1 mg/kg): 625 ng/mL; T1/2 ([3]; IV, 1 mg/kg): 57.2 min; Tlast ([3]; IV, 1 mg/kg): 4 h; Vss ([3]; IV, 1 mg/kg): 3.02 L/kg; clearance ([3]; IV, 1 mg/kg): 45.6 mL/min/kg |
